From patent EP2508526A1, “Spiroalkene carboxamide derivatives and their use as chemokine receptor modulators” (Ares Trading SA, priority 2011, dated 2012)
pKi: −log10 of the molar value.

target: T1, hCCR2b (Homo sapiens, UniProt P41597); test: CCR2 binding assay ([125I]MCP-1, SPA, CHO cell membranes); set-up: expressed in transfected cells; host or cells: CHO cells (membrane preparation); conditions: membranes from CHO cells expressing hCCR2b, 50 pM [125I]MCP-1; read-out: Binding hCCR2 (Ki)
T1 sequence (P41597 1-360 isoform P41597-2): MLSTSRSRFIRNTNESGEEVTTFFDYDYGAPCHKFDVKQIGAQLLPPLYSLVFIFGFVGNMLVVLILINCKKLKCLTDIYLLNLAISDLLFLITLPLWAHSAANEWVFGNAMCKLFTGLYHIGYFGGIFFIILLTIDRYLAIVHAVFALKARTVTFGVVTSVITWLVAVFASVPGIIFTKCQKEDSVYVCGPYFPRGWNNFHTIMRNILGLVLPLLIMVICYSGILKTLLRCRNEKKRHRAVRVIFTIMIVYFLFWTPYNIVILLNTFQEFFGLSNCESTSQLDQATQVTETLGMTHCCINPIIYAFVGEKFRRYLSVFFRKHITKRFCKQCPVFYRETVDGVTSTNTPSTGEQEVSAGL
Procedure: Membranes were prepared from CHO cells expressing mCCR2b or hCCR2b for use in ligand binding studies. Cells were suspended in 50mM Tris-HCL, pH 7.4, 2 mM EDTA, 250 mM Sucrose and 1x Complete EDTA-free protease inhibitor cocktail (Roche) (Buffer A), and disrupted at 4°C by N2 decompression using a cell disruption bomb (Parr Instrument). Following centrifugation at 200 RCF for 10 min at 4°C, the supernatant was suspended in buffer A and centrifuged again at 19000 RPM (RCSC rotor SS34 code 05 Sorvall Instruments DUPONT) for 90 min at 4°C. The pellet was then suspended in 10 mM HEPES, pH 7.4, 1 mM EDTA, 250 mM Sucrose, and 1x Complete EDTA-free protease inhibitor cocktail (Buffer B) and homogenized using a potter. Membranes were flash frozen in liquid N2 and stored at -80°C. [125I] Monocyte Chemoattractant Protein -1 (MCP-1) (25µCi; Perkin Elmer) was added to test compounds in DMSO (1% final). Membranes and WGA SPA beads (GE Healthcare) were added to give a final volume of 100 µl in 96-well plates with assay concentrations of 50 pM or 100 pM [125I]Monocyte Chemoattractant Protein -1 (respectively for hCCR2b or mCCR2b), 50 mM HEPES, pH 7.4, 5 mM MgCl2, 1 mM CaCl2, 0.1% BSA, 1-5 µg/well of membranes and 100 µg/well of WGA SPA beads. Binding was performed for 90 min at RT with strong agitation of speed 5 (Heidolph Titramax 100 SCITEC) and bound radioactivity was measured on a PerkinElmer 1450 MicroBeta counter. Specific binding was calculated by subtracting remaining radioactivity in the presence of 1000-fold excess of unlabeled compound. Binding data were analyzed using the Genedata Screener® software.

Row | pKi | Structure (SMILES)
1 | > 7.30 | CC1=C(C(=O)N2CCc3ccc(C(F)(F)F)cc3C2)C2(CCN(C3CCCC3)CC2)OC1=O [Compound 30, 8-cyclopentyl-3-methyl-4-{[7-(trifluoromethyl)-3,4-dihydroisoquinolin-2(1H)-yl]carbonyl}-1-oxa-8-azaspiro[4.5]dec-3-en-2-one]
2 | 5.70 to 6.30 | CC1=C(C(=O)N2CCN(c3cccc(Cl)c3)CC2)C2(CCN(Cc3ccccc3)CC2)OC1=O [Compound 110, 8-benzyl-4-{[4-(3-chlorophenyl)piperazin-1-yl]carbonyl}-3-methyl-1-oxa-8-azaspiro[4.5]dec-3-en-2-one]
3 | > 7.30 | CC1=C(C(=O)N2CCc3ncc(C(F)(F)F)cc3C2)C2(CCN(C3CCOCC3)CC2)OC1=O [Compound 119, 3-methyl-8-(tetrahydro-2H-pyran-4-yl)-4-{[3-(trifluoromethyl)-7,8-dihydro-1,6-naphthyridin-6(5H)-yl]carbonyl}-1-oxa-8-azaspiro[4.5]dec-3-en-2-one]
4 | > 7.30 | CCN1CCC2(CC1)OC(=O)C(C)=C2C(=O)NCC(=O)Nc1cccc(C(F)(F)F)c1 [Compound 56, 8-ethyl-3-methyl-2-oxo-N-(2-oxo-2-{[3-(trifluoromethyl)phenyl]amino}ethyl)-1-oxa-8-azaspiro[4.5]dec-3-ene-4-carboxamide]
5 | 5.70 to 6.30 | CCN1CCC2(CC1)OC(=O)C(C)=C2C(=O)Nc1cnn(-c2ccc(C(F)(F)F)cc2)c1 [Compound 67, 8-ethyl-3-methyl-2-oxo-N-{1-[4-(trifluoromethyl)phenyl]-1H-pyrazol-4-yl}-1-oxa-8-azaspiro[4.5]dec-3-ene-4-carboxamide]
6 | 6.30 to 7.00 | CC1=C(C(=O)N2CCN(c3cccc(C(F)(F)F)c3)CC2)C2(CCN(CC(=O)O)CC2)OC1=O [Compound 9, [3-methyl-2-oxo-4-({4-[3-(trifluoromethyl)phenyl]piperazin-1-yl}carbonyl)-1-oxa-8-azaspiro[4.5]dec-3-en-8-yl]acetic acid]
7 | > 7.30 | CC1=C(C(=O)N2CCN(c3cccc(C(F)(F)F)c3)CC2)C2(CCN(C(C)Cc3ccccc3)CC2)OC1=O (stereo not shown) [Compound 104, 3-methyl-8-(1-methyl-2-phenylethyl)-4-({4-[3-(trifluoromethyl)phenyl]piperazin-1-yl}carbonyl)-1-oxa-8-azaspiro[4.5]dec-3-en-2-one]
8 | > 7.30 | CC1=C(C(=O)N2CCN(c3cccc(C(F)(F)F)c3)CC2)C2(CCN(CCc3ccc(Cl)cc3)CC2)OC1=O [Compound 13, 8-[2-(4-chlorophenyl)ethyl]-3-methyl-4-({4-[3-(trifluoromethyl)phenyl]piperazin-1-yl}carbonyl)-1-oxa-8-azaspiro[4.5]dec-3-en-2-one]
9 | 6.30 to 7.00 | CCN1CCC2(CC1)OC(=O)C(C)=C2C(=O)NCCCc1cccc(C(F)(F)F)c1 [Compound 92, 8-ethyl-3-methyl-2-oxo-N-{3-[3-(trifluoromethyl)phenyl]propyl}-1-oxa-8-azaspiro[4.5]dec-3-ene-4-carboxamide]
10 | 7.00 to 7.30 | CCN1CCC2(CC1)OC(=O)C(C)=C2C(=O)NCc1cccc(C(F)(F)F)c1 [Compound 89, 8-ethyl-3-methyl-2-oxo-N-[3-(trifluoromethyl)benzyl]-1-oxa-8-azaspiror[4.5]dec-3-ene-4-carboxamide]
11 | > 7.30 | CC1=C(C(=O)N2CCN(c3cccc(C(F)(F)F)c3)CC2)C2(CCN(C3CCOCC3)CC2)OC1=O [Compound 21, 3-methyl-8-(tetrahydro-2H-pyran-4-yl)-4-({4-[3-(trifluoromethyl)phenyl]piperazin-1-yl}carbonyl)-1-oxa-8-azaspiro[4.5]dec-3-en-2-one]
12 | 7.00 to 7.30 | CCN1CCC2(C1)OC(=O)C(C)=C2C(=O)N1CCN(c2cccc(C(F)(F)F)c2)CC1 (stereo not shown) [Compound 118, 7-ethyl-3-methyl-4-({4-[3-(trifluoromethyl)phenyl]piperazin-1-yl}carbonyl)-1-oxa-7-azaspiro[4.4]non-3-en-2-one]
13 | 5.70 to 6.30 | CCN1CCC2(CC1)OC(=O)C(C)=C2C(=O)N1CCc2cccc(C(F)(F)F)c2C1 [Compound 51, 8-ethyl-3-methyl-4-{[8-(trifluoromethyl)-3,4-dihydroisoquinolin-2 (1H)-yl]carbonyl}-1-oxa-8-azaspiro[4.5]dec-3-en-2-one]
14 | > 7.30 | COCCN1CCC2(CC1)OC(=O)C(C)=C2C(=O)N1CCN(c2cccc(C(F)(F)F)c2)CC1 [Example 4, 8-(2-methoxyethyl)-3-methyl-4-({4-[3-(trifluoromethyl)phenyl]piperazin-1-yl}carbonyl)-1-oxa-8-azaspiro[4.5]dec-3-en-2-one]
15 | > 7.30 | CC1=C(C(=O)N2CCN(c3cccc(C(F)(F)F)c3)CC2)C2(CCN(CC(C)c3ccccc3)CC2)OC1=O (stereo not shown) [Compound 105, 3-methyl-8-(2-phenylpropyl)-4-({4-[3-(trifluoromethyl)phenyl]piperazin-1-yl}carbonyl)-1-oxa-8-azaspiro[4.5]dec-3-en-2-one]
16 | 6.30 to 7.00 | CCN1CCC2(CC1)OC(=O)C(C)=C2C(=O)N1CCN(c2ccc(OC(F)(F)F)cc2)CC1 [Compound 93, 8-ethyl-3-methyl-4-({4-[4-(trifluoromethoxy)phenyl]piperazin-1-yl}carbonyl)-1-oxa-8-azaspiro[4.5]1dec-3-en-2-one]
17 | > 7.30 | CCN1CCCC2(CC1)OC(=O)C(C)=C2C(=O)N1CCN(c2cccc(C(F)(F)F)c2)CC1 (stereo not shown) [Compound 121, 8-ethyl-3-methyl-4-({4-[3-(trifluoromethyl)phenyl]piperazin-1-yl}carbonyl)-1-oxa-8-azaspiro[4.6]undec-3-en-2-one]
18 | 6.30 to 7.00 | CCN1CCC2(CC1)OC(=O)C(C)=C2C(=O)N1CCC(c2cccc(C(F)(F)F)c2)CC1 [Compound 94, 8-ethyl-3-methyl-4-({4-[3-(trifluoromethyl)phenyl]piperidin-1-yl}carbonyl)-1-oxa-8-azaspiro[4.5]dec-3-en-2-one]
19 | > 7.30 | COCCN1CCC2(CC1)OC(=O)C(C)=C2C(=O)N1CCc2ccc(C(F)(F)F)cc2C1 [Compound 16, 8-(2-methoxyethyl)-3-methyl-4-{[7-(trifluoromethyl)-3,4-dihydroisoquinolin-2(1H)-yl]carbonyl}-1-oxa-8-azaspiro[4.5]dec-3-en-2-one]
20 | 5.70 to 6.30 | CCN1CCC2(CC1)OC(=O)C(C)=C2C(=O)N1CCN(c2cc(C(F)(F)F)ccc2OC)CC1 [Compound 95, 8-ethyl-4-({4-[2-methoxy-5-(trifluoromethyl)phenyl]piperazin-1-yl}carbonyl)-3-methyl-1-oxa-8-azaspiro[4.5]dec-3-en-2-one]

Row | Structure (SMILES) | pKi
21 | COC1COCCC1N1CCC2(CC1)OC(=O)C(C)=C2C(=O)N1CCc2ccc(C(F)(F)F)cc2C1 (single isomer, unassigned; (-)) [Compound 40, (-)-1,5-anhydro-2,3-dideoxy-4-O-methyl-3-(3-methyl-2-oxo-4-{[7-(trifluoromethyl)-3,4-dihydroisoquinolin-2(1H)-yl]carbonyl}-1-oxa-8-azaspiro[4.5]dec-3-en-8-yl) -pentitol] | > 7.30
22 | COC1COCCC1N1CCC2(CC1)OC(=O)C(C)=C2C(=O)N1CCc2ncc(C(F)(F)F)cc2C1 (single isomer, unassigned; (+)) [Compound 48, (+)-1,5-anhydro-3,4-dideoxy-2-O-methyl-3-(3-methyl-2-oxo-4-{[3-(trifluoromethyl)-7,8-dihydro-1,6-naphthyridin-6(5H)-yl]carbonyl}-1-oxa-8-azaspiro[4.5]dec-3-en-8-yl)-pentitol] | 6.30 to 7.00
